Source: US20250295826A1, “[…] UREASE INHIBITORS” (Symrise AG, priority 2022, published 2025)

How the values were obtained:
[1] = tested on: urease; test: Screening of urease inhibition (colorimetric Phenol Red assay, 96 well plates); type: biochemical; details: additive 0.1 w/w, urea 0.2% w/w, urease 0.5 U/ml; for Inhibition: fraction vs negative control, 1 h
Procedure: Urease catalyzed ammonia formation leads to a change in pH (alkalization). […] The enzymatic screening assay is described below. The colorimetric assay is conducted in 96 well plates in combination with a microplate spectrophotometer with Phenol Red as pH sensitive indicator.
In brief: the substrate urea, the fragrance raw material and the urease are mixed in the wells and the change in absorption at 560 nm is monitored for 1 h. The resulting absorbance curves are compared to untreated samples (negative controls, without inhibitors) and samples with commercially available NBPT inhibitor (positive control).

[2] = tested on: urease; test: Application in cat litter: ammonia formation from artificial cat urine (headspace sampling); details: litter coated with 0.1% (w/w) active material; artificial cat urine with urea and urease; headspace ammonia over 5 days; negative control = 100
Procedure: The efficiency of reducing ammonia formation in cat litter was tested with different fragrance raw materials that are shown in the table below (table 3).
In brief, the litter was coated with a final concentration of 0.1% (w/w) of active material respective to the dry litter material. In a glass bottle with a total volume of 5 l, the litter is treated with artificial cat urine that consists of an aqueous salt solution containing urea and urease. The development of ammonia is measured through headspace sampling with an ammonia sensitive detector over a period of 5 days.

SMILES | Inhibition ([1]; positive hits table) | further results
CCC/C=C/CO [HEXENOL TRANS-2, trans-2-hexenol] | 0.912 | 
OC/C=C/c1ccccc1 [CINNAMIC ALCOHOL, (2E)-3-phenylprop-2-en-1-ol] | 0.931 | 
CC/C=C\CCOC(=O)C(C)C [HEXENYL I[…]-3, cis-3-hexenyl isobutyrate] | 0.865 | 
CCC/C=C/C=O [HEXENAL TRANS-2, trans-2-hexenal] | 0.961 | Relative ammonia formation in % [2]: 32%
CC/C=C\CCOC(=O)CC [HEXENYL […]-3, cis-3-hexenyl propionate] | 0.956 | 
CC1=C(O)C(=O)C(C)O1 (stereo not drawn) [FURANEOL, 4-Hydroxy-2,5-dimethyl-3-furanone] | 0.985 | 
CC(C)=CCC/C(C)=C\CO [NEROL 900, (2Z)-3,7-dimethylocta-2,6-dien-1-ol] | 0.758 | 
C=CCc1ccc(O)c(OC)c1 [EUGENOL NAT., 2-Methoxy-4-(prop-2-en-1-yl)phenol] | 0.908 | 
CC/C=C\CCOC(=O)c1ccccc1O [HEXENYL […]-3, cis-3-hexenyl salicylate] | 0.989 | Relative ammonia formation in % [2]: 65%
CC(=O)/C(C)=C/C1C(C)=CCCC1(C)C (stereo not drawn) [METHYL IONONE GAMMA PURE/IFF, methyl ionone gamma] | 0.942 | 
CC/C=C\CC/C=C/CO [NONADIENOL-2,6, 2,6-nonadien-1-ol] | 0.885 | 
CC/C=C\CCOC(C)=O [HEXENYL ACETATE CIS-3, cis-3-hexenyl acetate] | 0.723 | 
CC/C=C\CCOC(=O)CCCCC [HEXENYL CAPROATE CIS-3, cis-3-hexenyl hexanoate] | 0.824 | 
CCC(=O)/C=C/C1C(C)=CCCC1(C)C (stereo not drawn) [METHYL IONONE ALPHA/IFF, methyl ionone alpha] | 0.936 | 
CCOc1cc(C)ccc1O [2-ethoxy-4-methylphenol] | 0.786 | 
CC/C=C\CCOC(=O)CCC [HEXENYL BUTYRATE CIS-3, cis-3-hexenyl butyrate] | 0.999 | Relative ammonia formation in % [2]: 65%
CC/C=C\CCOC(C)OCC (stereo not drawn) [LEAF ACETAL, cis-1-(1-Ethoxyethoxy)-3-hexene] | 0.964 | Relative ammonia formation in % [2]: 81%
CC/C=C\CCOC(=O)CC(C)C [HEXENYL I[…]-3, cis-3-hexenyl isovalerate] | 0.724 | 
C/C=C/C(=O)C1C(C)=CCCC1(C)C (stereo not drawn) [DAMASCONE ALPHA, (E)-1-(2,6,6-trimethyl-1-cyclohex-2-enyl)but-2-en-1-one] | 0.991 | 
COc1ccccc1O [GUAIACOL, 2-Methoxyphenol] | 0.718 | 
CC/C=C\CCO [HEXENOL CIS-3, cis-3-hexenol] | 0.888 | 
CC(C)=CCC/C(C)=C/CO [GERANIOL 60 B, 2,6-Octadien-1-ol 3,7-dimethyl] | 0.910 | 
C/C=C/C(=O)C1=C(C)C=CCC1(C)C [D[…], (E)-1-(2,6,6-trimethyl-1-cyclohexa-1,3-dienyl)but-2-en-1-one] | 0.985 | 
CCCCNP(N)(N)=S [NBPT, reference compound] |  | Inhibition ([1]; Table 2): 1.00; Δ Absorbance at 1 h (560 nm) ([1]; PBS pH 7.4, monitored 1 h): 0.00
Cc1ccc2c(c1)OC(=O)C2C (stereo not drawn) [FURAMINTON/TONKALACTONE ™, dimethyl-3,6-benzo-2(3H)-furanone] | 0.669 | 
